Experimental data reported in patent US20080063628A1, “METHODS TO PROMOTE CELL DIFFERENTIATION” (priority 2006, published 2008).

System: early passage (P5) pancreatic-derived stromal cell line
Test: Single trichostatin A dose, 144 h follow-up, gene expression by RT-PCR (Example 6)
Type: cell-based, human
Details: 1.25 μM once at 0 h
Protocol: Several cell lines obtained from different amniotic fluid specimens (see Example 14) and pancreas donors (see Example 13) were tested with similar results. Two lines at similar passage number but derived from different amniotic fluid specimens are shown in Table VI-A and Table VI-B for this example. One of these cell lines was also used in examples 2 and 4 above. In addition, this example also contains comparison data in Table VI-C and Table VI-D for a single pancreatic-derived stromal line grown to early and late passage number.
Amniotic fluid derived cells or pancreatic-derived stromal cells were seeded into 24-well tissue culture plates at a density of 5000/cm^2 and cultured in AMNIOMAX (Invitrogen) or DMEM with 10% FBS, respectively, under standard cell culture conditions until confluent. After the cells reached confluency, amniotic fluid derived cells were treated once at time 0 hours with 500 nM trichostatin A. Pancreas-derived stromal cells were treated once at time 0 hours with 1.25 μM trichostatin A. Samples for RT-PCR were taken daily from zero to six days at the times indicated in Table VI.
RNA samples were obtained from the treated cultures up to 144 hours after the initial addition of trichostatin A or DMSO. Culture media was removed, the cells were washed with PBS, and RLT lysis buffer containing β-mercaptoethanol (Qiagen) was added. During culture, the medium was not changed nor was freshly prepared trichostatin A added. RNA was purified using the RNeasy Mini Kit (Qiagen), and RNA quantity and quality was determined using a spectrophotometer. cDNA was made using the iScript cDNA synthesis kit (BioRad).
Samples of 20 ng cDNA were used in each reaction to determine the expression levels of the following genes in amniotic fluid-derived cells: Gata1, HNF-3 beta, Pdx-1, insulin, and Sox17. Similarly, samples of 20 ng cDNA were used in each reaction to determine the expression level of the following genes in pancreatic-derived stromal cells: glucagon, HNF-3 beta, insulin and Pdx-1. Real-Time PCR was performed on the Applied Biosystems 7500, and data was analyzed using the accompanying software according to the methods described in Example 15.
Real-time PCR amplifcation and quantitative analysis. Unless otherwise stated, all reagents were purchased from Applied Biosystems. Real-time PCR reactions were performed using the ABI PRISM™ 7500 Sequence Detection System. TAQMAN™ FAST UNIVERSAL PCR MASTER MIX™ (ABI, CA) was used with 20 ng of reverse transcribed RNA in a total reaction volume of 20 μl. Each cDNA sample was run in duplicate to allow correction of pipetting errors. Primers and FAM-labeled TAQMAN™ probes were used at concentrations of 200 nM. The level of expression for each target gene was normalized using the pre-developed Applied Biosystem's human glyceraldehyde-3-phosphate dehydrogenase (GAPDH) endogenous control kit. Primers and probes were designed using either ABI PRISM PRIMER EXPRESS™ software or a pre-developed ABI gene analysis kit. For each gene, either one of the primers or the probe were designed to be exon-boundary spanning. This eliminated the possibility of the primers/probe binding to any genomic DNA present. The primer and probe sets are listed as follows: Pdx-1 (Hs00426216), Insulin (Hs00355773), glucagon (Hs00174967), and FoxA2 (HNF 3-beta) (Hs00232764). The remaining primers were designed using the PRIMERS program (ABI, CA). After an initial 95° C. incubation for 20 sec, samples were cycled 40 times in two stages: a denaturation step at 95° C. for 3 sec, followed by an annealing/extension step at 60° C. for 30 sec.
For each primer/probe set, a cycle time value was determined as the cycle number at which the fluorescence intensity of the PCR reaction reached a specific value in the middle of the exponential region of amplification. An increase in expression of a gene corresponded to a decrease in the number of cycles required for the fluorescence intensity to reach this value.

CC(/C=C/C(=O)NO)=C\[C@@H](C)C(=O)c1ccc(N(C)C)cc1 [trichostatin A]
HNF (HNF-3 beta) gene expression (24 hrs): +++ (detectable at less than 35 cycles by RT-PCR with SE less than 0.9) | Insulin gene expression (24 hrs): nd (not detectable at >40 cycles by RT-PCR) | Pdx-1 gene expression (24 hrs): +++ (detectable at less than 35 cycles by RT-PCR with SE less than 0.9) | glucagon gene expression (24 hrs): +++ (detectable at less than 35 cycles by RT-PCR with SE less than 0.9) | HNF (HNF-3 beta) gene expression (48 hrs): nd (not detectable at >40 cycles by RT-PCR) | Insulin gene expression (48 hrs): nd (not detectable at >40 cycles by RT-PCR) | Pdx-1 gene expression (48 hrs): nd (not detectable at >40 cycles by RT-PCR) | glucagon gene expression (48 hrs): + (detectable between 35 and 40 cycles by RT-PCR) | HNF (HNF-3 beta) gene expression (72 hrs): nd (not detectable at >40 cycles by RT-PCR) | Insulin gene expression (72 hrs): nd (not detectable at >40 cycles by RT-PCR) | Pdx-1 gene expression (72 hrs): nd (not detectable at >40 cycles by RT-PCR) | glucagon gene expression (72 hrs): + (detectable between 35 and 40 cycles by RT-PCR) | HNF (HNF-3 beta) gene expression (96 hrs): nd (not detectable at >40 cycles by RT-PCR) | Insulin gene expression (96 hrs): nd (not detectable at >40 cycles by RT-PCR) | Pdx-1 gene expression (96 hrs): nd (not detectable at >40 cycles by RT-PCR) | glucagon gene expression (96 hrs): +++ (detectable at less than 35 cycles by RT-PCR with SE less than 0.9) | HNF (HNF-3 beta) gene expression (120 hrs): nd (not detectable at >40 cycles by RT-PCR) | Insulin gene expression (120 hrs): nd (not detectable at >40 cycles by RT-PCR) | Pdx-1 gene expression (120 hrs): nd (not detectable at >40 cycles by RT-PCR) | glucagon gene expression (120 hrs): nd (not detectable at >40 cycles by RT-PCR) | HNF (HNF-3 beta) gene expression (144 hrs): nd (not detectable at >40 cycles by RT-PCR) | Insulin gene expression (144 hrs): nd (not detectable at >40 cycles by RT-PCR) | Pdx-1 gene expression (144 hrs): nd (not detectable at >40 cycles by RT-PCR) | glucagon gene expression (144 hrs): nd (not detectable at >40 cycles by RT-PCR)
